Data on one molecule can be found in paper PMC5666424, “Marine-Derived 2-Aminoimidazolone Alkaloids. Leucettamine B-Related Polyandrocarpamines Inhibit Mammalian and Protozoan DYRK & CLK Kinases” (Marine Drugs, 2017).

One assay deals with T1, CAMKK2 (Homo sapiens, UniProt Q96RR4).
T1 construct: purchased DiscoverX (KINOMEscan)
In words: KinomeScan. The following applies: 1 μM. In kind it is binding.

The target of the next assay is T2, EGFR(S752-I759del) (Homo sapiens, UniProt P00533, DEL752-759).
T2 construct: purchased DiscoverX (KINOMEscan)
T2 sequence (P00533 with tags, fused parts or gaps DEL752-759 limits assumed): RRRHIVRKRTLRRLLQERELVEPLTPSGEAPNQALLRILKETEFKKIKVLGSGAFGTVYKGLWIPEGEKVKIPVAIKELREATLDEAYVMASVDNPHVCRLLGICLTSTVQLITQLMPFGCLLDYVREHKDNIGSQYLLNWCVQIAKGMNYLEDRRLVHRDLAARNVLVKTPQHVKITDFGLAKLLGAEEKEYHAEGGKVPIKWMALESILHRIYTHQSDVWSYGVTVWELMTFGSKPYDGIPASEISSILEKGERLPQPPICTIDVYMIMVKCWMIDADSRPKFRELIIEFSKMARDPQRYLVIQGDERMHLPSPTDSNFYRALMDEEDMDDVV
In words: KinomeScan. In kind it is binding. Conditions: 1 μM.

In another assay the target is T3, MARK1 (Homo sapiens, UniProt Q9P0L2).
T3 construct: purchased DiscoverX (KINOMEscan)
T3 sequence (Q9P0L2 whole entry): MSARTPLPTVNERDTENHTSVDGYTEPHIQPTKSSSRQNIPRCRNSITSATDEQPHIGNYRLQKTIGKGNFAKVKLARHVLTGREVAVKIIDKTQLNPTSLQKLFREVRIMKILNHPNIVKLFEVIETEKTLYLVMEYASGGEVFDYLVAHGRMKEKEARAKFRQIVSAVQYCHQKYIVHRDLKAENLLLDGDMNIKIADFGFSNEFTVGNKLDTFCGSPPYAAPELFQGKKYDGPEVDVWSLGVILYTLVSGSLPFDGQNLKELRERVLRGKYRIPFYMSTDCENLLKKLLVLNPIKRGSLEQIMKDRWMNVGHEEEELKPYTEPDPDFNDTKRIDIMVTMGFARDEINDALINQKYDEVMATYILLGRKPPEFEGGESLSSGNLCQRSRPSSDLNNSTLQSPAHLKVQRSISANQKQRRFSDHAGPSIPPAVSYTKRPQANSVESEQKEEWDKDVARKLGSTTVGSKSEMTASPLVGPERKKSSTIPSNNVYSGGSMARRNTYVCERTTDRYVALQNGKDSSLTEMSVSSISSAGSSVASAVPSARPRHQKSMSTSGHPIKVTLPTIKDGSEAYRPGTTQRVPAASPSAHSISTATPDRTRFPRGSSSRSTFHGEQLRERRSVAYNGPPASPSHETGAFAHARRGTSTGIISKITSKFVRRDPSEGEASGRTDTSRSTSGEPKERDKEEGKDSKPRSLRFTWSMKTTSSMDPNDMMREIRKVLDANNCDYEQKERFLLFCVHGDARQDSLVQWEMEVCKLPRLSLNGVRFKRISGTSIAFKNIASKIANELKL
In words: KinomeScan. Conditions: 1 μM. In kind it is binding.

A further assay has as its target T4, MLK3 (Homo sapiens, UniProt Q16584).
T4 construct: purchased DiscoverX (KINOMEscan)
In words: KinomeScan. In kind it is binding. The following applies: 1 μM.

Another assay addresses CLK1 (Homo sapiens, UniProt P49759). Kind of assay: KinomeScan. In kind it is binding. The following applies: 1 μM.
The test system of another assay is EGFR(L747-T751del,Sins). Kind of assay: KinomeScan. In kind it is binding, human. Conditions: 1 μM. The method, then:
(§1) Assays were performed essentially as described previously. For most assays, kinase-tagged T7 phage strains were grown in parallel in 24-well blocks in an E. coli host derived from the BL21 strain. E. coli were grown to log-phase and infected with T7 phage from a frozen stock (multiplicity of infection ~0.1) and incubated with shaking at 32 °C until lysis (~90 min). The lysates were centrifuged (6000× g) and filtered (0.2 μm) to remove cell debris. The remaining kinases were produced in HEK-293 cells and subsequently tagged with DNA for qPCR detection. […] The liganded beads were blocked with excess biotin and washed with blocking buffer (SeaBlock (Pierce, ThermoFisher Scientific, Illkirch, France), 1% BSA, 0.05% Tween 20, 1 mM DTT) to remove unbound ligand and to reduce non-specific phage binding. […] An 11-point threefold serial dilution of each test compound was prepared in 100% DMSO at 100× final test concentration which and subsequently diluted to 1× in the assay. All reactions were performed in polystyrene 96-well plates in a final volume of 0.135 mL. […] The kinase concentration in the eluates was measured by qPCR.

In a further assay the test system is FLT3(ITD). In words: KinomeScan. The class given is binding, human. The following applies: 1 μM. As to the method:
as §1

The target in another assay is DYRK1A (Homo sapiens, UniProt Q13627). Kind of assay: Thr286-cyclin D1 phosphorylation in SH-SY5Y cells. The class given is cell-based. More on the design: expressed in transfected cells; host or cells: SH-SY5Y neuroblastoma cells, doxycycline-inducible (gift from Dr. Walter Becker). The following applies: 30 μM, 24 h.

CLK1, sequence (P49759 whole entry): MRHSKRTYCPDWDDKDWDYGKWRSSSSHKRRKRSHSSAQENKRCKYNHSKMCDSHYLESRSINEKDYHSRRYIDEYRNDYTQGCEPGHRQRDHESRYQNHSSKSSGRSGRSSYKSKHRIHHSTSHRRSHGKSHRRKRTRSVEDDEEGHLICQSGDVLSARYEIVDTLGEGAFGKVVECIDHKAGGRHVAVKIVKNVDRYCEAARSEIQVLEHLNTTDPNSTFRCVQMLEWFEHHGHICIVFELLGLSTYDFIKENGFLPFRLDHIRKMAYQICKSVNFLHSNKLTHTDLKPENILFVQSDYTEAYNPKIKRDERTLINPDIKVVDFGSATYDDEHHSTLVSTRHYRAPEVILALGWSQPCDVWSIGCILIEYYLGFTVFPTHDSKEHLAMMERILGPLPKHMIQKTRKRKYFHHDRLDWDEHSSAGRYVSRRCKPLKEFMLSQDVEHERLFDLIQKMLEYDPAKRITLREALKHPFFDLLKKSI
T1 sequence (Q96RR4 whole entry): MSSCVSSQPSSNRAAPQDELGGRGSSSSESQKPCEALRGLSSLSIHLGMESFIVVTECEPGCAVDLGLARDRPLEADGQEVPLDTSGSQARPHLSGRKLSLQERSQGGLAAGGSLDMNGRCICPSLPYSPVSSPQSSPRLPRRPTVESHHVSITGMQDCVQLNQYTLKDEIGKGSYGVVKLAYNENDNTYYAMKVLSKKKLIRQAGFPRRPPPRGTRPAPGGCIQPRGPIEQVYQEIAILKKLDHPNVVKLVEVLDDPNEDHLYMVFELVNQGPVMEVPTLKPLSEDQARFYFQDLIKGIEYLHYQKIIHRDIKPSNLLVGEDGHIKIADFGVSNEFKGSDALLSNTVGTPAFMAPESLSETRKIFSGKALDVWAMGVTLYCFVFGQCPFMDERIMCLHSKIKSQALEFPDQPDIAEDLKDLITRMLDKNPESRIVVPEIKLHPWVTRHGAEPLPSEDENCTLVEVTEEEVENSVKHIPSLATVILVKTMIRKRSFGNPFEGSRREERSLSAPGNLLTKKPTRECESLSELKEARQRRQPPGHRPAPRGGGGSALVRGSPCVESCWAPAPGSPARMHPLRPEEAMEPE
T4 sequence (Q16584 whole entry): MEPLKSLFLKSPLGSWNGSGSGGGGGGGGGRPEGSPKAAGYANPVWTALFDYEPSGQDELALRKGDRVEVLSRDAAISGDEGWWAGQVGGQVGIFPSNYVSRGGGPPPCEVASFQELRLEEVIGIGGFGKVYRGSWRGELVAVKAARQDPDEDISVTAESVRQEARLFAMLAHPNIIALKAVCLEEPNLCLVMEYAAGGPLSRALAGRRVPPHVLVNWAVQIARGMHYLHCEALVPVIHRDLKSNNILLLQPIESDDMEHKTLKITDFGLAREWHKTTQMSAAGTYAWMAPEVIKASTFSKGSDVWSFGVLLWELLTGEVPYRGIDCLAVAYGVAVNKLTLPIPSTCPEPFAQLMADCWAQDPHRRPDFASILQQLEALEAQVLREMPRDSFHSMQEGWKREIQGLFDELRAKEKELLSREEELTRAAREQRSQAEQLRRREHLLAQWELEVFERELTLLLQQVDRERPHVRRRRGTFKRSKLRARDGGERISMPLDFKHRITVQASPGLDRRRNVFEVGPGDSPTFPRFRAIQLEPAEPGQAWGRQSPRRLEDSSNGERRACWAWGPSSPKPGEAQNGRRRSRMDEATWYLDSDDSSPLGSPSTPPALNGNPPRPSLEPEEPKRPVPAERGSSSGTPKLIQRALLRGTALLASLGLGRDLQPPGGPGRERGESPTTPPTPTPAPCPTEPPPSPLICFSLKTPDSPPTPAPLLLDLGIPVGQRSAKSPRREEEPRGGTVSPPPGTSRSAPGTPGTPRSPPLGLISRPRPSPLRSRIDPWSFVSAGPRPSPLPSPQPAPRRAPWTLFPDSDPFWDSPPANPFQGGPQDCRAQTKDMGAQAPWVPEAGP
Method for DYRK1A: Cell treatments. SH-SY5Y cells conditionally expressing human DYRK1A [36], under the control of doxycycline (gift from Dr. Walter Becker) were cultured Dulbecco’s Modified Eagle Medium (DMEM): Nutrient Mixture F-12 (DMEM/F-12, Gibco, c/o Invitrogen, Saint Aubin, France) containing 1% Penicillin Streptomycin mixture (Gibco) and 10% fetal bovine serum (FBS, Gibco) in a humidified, 5% CO2 incubator at 37 °C. Cells were split routinely once a week. They were first rinsed with phosphate buffered saline (PBS, Gibco) and detached from the plate bottom using 2 mL Trypsin (Gibco) at 37 °C for 3–4 min. Eight mL of fresh medium were added to the cell suspension and the mix was centrifuged for 3 min at 1000 rpm. The cell pellet was resuspended in fresh medium before seeding (½ dilution) in new 150 mm plates. First, 1 μg/mL doxycycline was used to induce DYRK1A expression and cells were incubated 24 h in a humidified, 5% CO2 incubator at 37 °C. Drugs (0, 3 or 30 μM final) were then added with a final concentration of 0.1% DMSO and cells were incubated for an additional 24 h in a humidified, 5% CO2 incubator at 37 °C. Afterwards, cells were scrapped in medium and centrifuged for 5 min at 3000 rpm at 4 °C. The pellets were washed twice with PBS, centrifuge for 5 min at 10,000 g at 4 °C, snap-frozen in liquid nitrogen and kept at −80 °C.
Western blot analysis. […]

As for `COc1cc(/C=C2\N=C(N)NC2=O)ccc1O` [Polyandrocarpamine A], the Score is on record as 94 at CAMKK2; 100 at EGFR(S752-I759del); 100 on MARK1; 100 at MLK3; 32 at CLK1; 92 with EGFR(L747-T751del,Sins). In addition, the Score in the assay with FLT3(ITD) was 100. For the same molecule, on DYRK1A, the “Phosphorylation of cyclin D1 at Thr286” value is given as “partially inhibited”.
